Reference: ChEMBL document CHEMBL1201862, “PubChem BioAssay data set” (2004)
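96-well plates; 48 h exposure; 5 concentrations. Endpoints by linear interpolation between flanking doses. Not reached: highest tested concentration assigned. GI50: concentration for 50% inhibition of growth.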 Active and inactive are the calls of the source. Rule as the data show it: active = GI50 up to about 1.1 µM and inactive = higher.

Legend:
Assay in all cases: DTP human tumour cell line panel, 48 h
[1] = test system: CCRF-CEM
[2] = test system: COLO 205
[3] = test system: EKVX
[4] = test system: HCT-15
[5] = test system: MDA-MB-231
[6] = test system: Malme-3M
[7] = test system: NCI-H460
[8] = test system: NCI-H522
[9] = test system: OVCAR-4
[10] = test system: OVCAR-5
[11] = test system: OVCAR-8
[12] = test system: SF-268
[13] = test system: SNB-19
[14] = test system: SR
[15] = test system: SW-620
[16] = test system: T47D

## Cc1cc(N2CCN(C)CC2)n2nc(-c3ccc(Cl)cc3)nc2n1
[1]
  GI50: 11.5 µM (inactive)
[2]
  GI50: 81.7 µM (inactive)
[3]
  GI50: 80.5 µM (inactive)
[4]
  GI50: > 100 µM
[5]
  GI50: > 100 µM (inactive)
[6]
  GI50: > 100 µM (inactive)
[7]
  GI50: 50.7 µM (inactive)
[8]
  GI50: 84.7 µM (inactive)
[9]
  GI50: > 100 µM (inactive)
[10]
  GI50: > 100 µM (inactive)
[11]
  GI50: > 100 µM (inactive)
[12]
  GI50: > 100 µM (inactive)
[13]
  GI50: > 100 µM (inactive)
[14]
  GI50: 17.7 µM (inactive)
[15]
  GI50: > 100 µM (inactive)
[16]
  GI50: > 100 µM (inactive)

## Cc1cc(C(F)(F)F)cc(-n2nc(NS(=O)(=O)c3cc(C)c(Cl)cc3S)nc2N)n1
[1]
  GI50: 23.7 µM (inactive)
[2]
  GI50: > 100 µM (inactive)
[3]
  GI50: 55.6 µM (inactive)
[4]
  GI50: 39.5 µM
[5]
  GI50: 37.7 µM (inactive)
[6]
  GI50: > 100 µM (inactive)
[7]
  GI50: 24.4 µM (inactive)
[8]
  GI50: 32 µM (inactive)
[9]
  GI50: > 95.3 µM (inactive)
[11]
  GI50: 45.4 µM (inactive)
[12]
  GI50: 92.9 µM (inactive)
[13]
  GI50: 26.8 µM (inactive)
[14]
  GI50: 23.4 µM (inactive)
[15]
  GI50: > 100 µM (inactive)
[16]
  GI50: 57.1 µM (inactive)

## CCOC(=O)C1CCC(=O)N1C(=O)c1cccc(Cl)c1 (configuration not stated)
[1]
  GI50: > 100 µM (inactive)
[3]
  GI50: > 100 µM (inactive)
[4]
  GI50: > 100 µM
[5]
  GI50: > 100 µM (inactive)
[6]
  GI50: > 100 µM (inactive)
[7]
  GI50: > 100 µM (inactive)
[8]
  GI50: > 100 µM (inactive)
[10]
  GI50: > 100 µM (inactive)
[11]
  GI50: > 100 µM (inactive)
[12]
  GI50: > 100 µM (inactive)
[13]
  GI50: > 100 µM (inactive)
[14]
  GI50: > 100 µM (inactive)
[15]
  GI50: > 100 µM (inactive)
[16]
  GI50: > 100 µM (inactive)

## CCNC1=C(NC(=O)c2ccccc2)C(=O)c2ccccc2C1=O
[1]
  GI50: 70.1 µM (inactive)
[2]
  GI50: 16.6 µM (inactive)
[4]
  GI50: 18.5 µM
[5]
  GI50: 6.12 µM (inactive)
[6]
  GI50: 16.8 µM (inactive)
[7]
  GI50: 39.4 µM (inactive)
[8]
  GI50: 11.2 µM (inactive)
[9]
  GI50: 81.3 µM (inactive)
[10]
  GI50: > 100 µM (inactive)
[11]
  GI50: 46.8 µM (inactive)
[13]
  GI50: 83.2 µM (inactive)
[14]
  GI50: 40.2 µM (inactive)
[15]
  GI50: 23.4 µM (inactive)
[16]
  GI50: 14.1 µM (inactive)

## C/C=C\C(C)=C/C(C)C(=O)CC(O)CC1CC(=O)NC(=O)C1 (configuration not stated)
[1]
  GI50: 10.1 µM (inactive)
[2]
  GI50: 17.1 µM (inactive)
[3]
  GI50: > 100 µM (inactive)
[4]
  GI50: 13.4 µM
[5]
  GI50: > 42.3 µM (inactive)
[7]
  GI50: 14.8 µM (inactive)
[8]
  GI50: 2.01 µM (inactive)
[9]
  GI50: 19.1 µM (inactive)
[10]
  GI50: 4.86 µM (inactive)
[11]
  GI50: 8.71 µM (inactive)
[12]
  GI50: 10.5 µM (inactive)
[13]
  GI50: 17.8 µM (inactive)
[14]
  GI50: 10.9 µM (inactive)
[15]
  GI50: 20.2 µM (inactive)
[16]
  GI50: 28.1 µM (inactive)

## O=C1CC2(CCNCC2)C(=O)N1N1CCCC1
[1]
  GI50: > 100 µM (inactive)
[2]
  GI50: > 100 µM (inactive)
[3]
  GI50: > 100 µM (inactive)
[4]
  GI50: > 100 µM
[5]
  GI50: > 100 µM (inactive)
[6]
  GI50: > 100 µM (inactive)
[8]
  GI50: > 100 µM (inactive)
[10]
  GI50: > 100 µM (inactive)
[11]
  GI50: > 100 µM (inactive)
[13]
  GI50: > 100 µM (inactive)
[14]
  GI50: > 100 µM (inactive)
[15]
  GI50: > 100 µM (inactive)
[16]
  GI50: > 100 µM (inactive)

## C=C(C)C1CC2(C)C(C)CC(O)CC2C(OC(=O)C=C(C)C)C1O (configuration not stated)
[1]
  GI50: 30.8 µM (inactive)
[2]
  GI50: 16.3 µM (inactive)
[3]
  GI50: 34.8 µM (inactive)
[4]
  GI50: 27.3 µM
[5]
  GI50: 24.5 µM (inactive)
[6]
  GI50: 45.6 µM (inactive)
[7]
  GI50: 22.8 µM (inactive)
[8]
  GI50: 24.3 µM (inactive)
[9]
  GI50: 29.5 µM (inactive)
[10]
  GI50: 31.3 µM (inactive)
[11]
  GI50: 40.6 µM (inactive)
[12]
  GI50: 23.7 µM (inactive)
[13]
  GI50: 22.2 µM (inactive)
[14]
  GI50: 17.8 µM (inactive)
[15]
  GI50: > 10 µM (inactive)
[16]
  GI50: 31.8 µM (inactive)

## CC(=O)OCC12CN(C#N)C3C4COC(CC41)C1(C(=O)N(C)c4ccccc41)C32 (configuration not stated)
[1]
  GI50: 11.8 µM (inactive)
[2]
  GI50: 16.7 µM (inactive)
[3]
  GI50: 20.7 µM (inactive)
[4]
  GI50: 17.1 µM
[5]
  GI50: 13.4 µM (inactive)
[6]
  GI50: 21 µM (inactive)
[7]
  GI50: 31.3 µM (inactive)
[8]
  GI50: 12.1 µM (inactive)
[9]
  GI50: 16.1 µM (inactive)
[10]
  GI50: 33.4 µM (inactive)
[11]
  GI50: 19.5 µM (inactive)
[12]
  GI50: 29.1 µM (inactive)
[14]
  GI50: 14.6 µM (inactive)
[15]
  GI50: 22 µM (inactive)
[16]
  GI50: 18.8 µM (inactive)

## CC1=CC[C@](C)(O)[C@@]2(C)CC[C@H]3C(=C(C)C)C(=O)C[C@]3(C)C[C@H]12
[1]
  GI50: 10.8 µM (inactive)
[2]
  GI50: 45.5 µM (inactive)
[3]
  GI50: > 50 µM (inactive)
[4]
  GI50: 12.3 µM
[5]
  GI50: > 50 µM (inactive)
[8]
  GI50: 10.4 µM (inactive)
[9]
  GI50: > 50 µM (inactive)
[10]
  GI50: > 50 µM (inactive)
[11]
  GI50: 29.2 µM (inactive)
[12]
  GI50: > 50 µM (inactive)
[13]
  GI50: > 50 µM (inactive)
[14]
  GI50: 12.5 µM (inactive)
[15]
  GI50: 27 µM (inactive)
[16]
  GI50: 28.9 µM (inactive)

## COC(=O)c1ccccc1C1CN=NC12Cc1ccc3ccccc3c1C2=O (configuration not stated)
[1]
  GI50: 70.5 µM (inactive)
[2]
  GI50: > 100 µM (inactive)
[3]
  GI50: > 100 µM (inactive)
[4]
  GI50: > 100 µM
[5]
  GI50: > 100 µM (inactive)
[6]
  GI50: 30.8 µM (inactive)
[7]
  GI50: 80 µM (inactive)
[8]
  GI50: 80.4 µM (inactive)
[9]
  GI50: > 100 µM (inactive)
[10]
  GI50: > 100 µM (inactive)
[11]
  GI50: > 100 µM (inactive)
[12]
  GI50: > 100 µM (inactive)
[13]
  GI50: > 100 µM (inactive)
[14]
  GI50: 36.5 µM (inactive)
[15]
  GI50: > 100 µM (inactive)
[16]
  GI50: 21.1 µM (inactive)

## CN1C(Cl)=NS(=O)(=O)c2ccccc21
[1]
  GI50: 34 µM (inactive)
[2]
  GI50: 43 µM (inactive)
[3]
  GI50: > 100 µM (inactive)
[4]
  GI50: > 100 µM
[5]
  GI50: > 100 µM (inactive)
[7]
  GI50: 92.7 µM (inactive)
[8]
  GI50: 28 µM (inactive)
[9]
  GI50: > 100 µM (inactive)
[10]
  GI50: > 100 µM (inactive)
[11]
  GI50: > 100 µM (inactive)
[12]
  GI50: > 100 µM (inactive)
[13]
  GI50: > 100 µM (inactive)
[14]
  GI50: 18.7 µM (inactive)
[15]
  GI50: > 100 µM (inactive)
[16]
  GI50: > 100 µM (inactive)

## O=C(NCCCCNCCCNC(=O)c1cc(-c2ccccc2)nc2ccccc12)c1cc(-c2ccccc2)nc2ccccc12
[1]
  GI50: 1.62 µM (inactive)
[2]
  GI50: 1.49 µM (inactive)
[3]
  GI50: 1.99 µM (inactive)
[4]
  GI50: 1.82 µM
[5]
  GI50: 1.85 µM (inactive)
[6]
  GI50: 1.78 µM (inactive)
[7]
  GI50: 1.91 µM (inactive)
[8]
  GI50: 1.7 µM (inactive)
[11]
  GI50: 1.69 µM (inactive)
[12]
  GI50: 2.03 µM (inactive)
[13]
  GI50: 1.76 µM (inactive)
[14]
  GI50: 2.35 µM (inactive)
[15]
  GI50: 1.71 µM (inactive)
[16]
  GI50: 1.87 µM (inactive)

## COc1ccc2c(c1)N=C1CSC(c3cc([N+](=O)[O-])ccc3Cl)N1C2 (configuration not stated)
[2]
  GI50: 30.1 µM (inactive)
[3]
  GI50: 18.3 µM (inactive)
[4]
  GI50: 28.6 µM
[5]
  GI50: 20.8 µM (inactive)
[6]
  GI50: 23.2 µM (inactive)
[7]
  GI50: 19.4 µM (inactive)
[8]
  GI50: 21.5 µM (inactive)
[9]
  GI50: 23.8 µM (inactive)
[10]
  GI50: 24 µM (inactive)
[11]
  GI50: 29 µM (inactive)
[12]
  GI50: 34.5 µM (inactive)
[13]
  GI50: 32.3 µM (inactive)
[14]
  GI50: 26.5 µM (inactive)
[15]
  GI50: 29.3 µM (inactive)
[16]
  GI50: 29.5 µM (inactive)

## Cc1cc(N2CCCCC2)nc2ccc(Cc3ccc4nc(N5CCCCC5)cc(C)c4c3)cc12
[2]
  GI50: 44.5 µM (inactive)
[3]
  GI50: 18.2 µM (inactive)
[4]
  GI50: 79.6 µM
[5]
  GI50: > 100 µM (inactive)
[6]
  GI50: > 100 µM (inactive)
[7]
  GI50: > 100 µM (inactive)
[8]
  GI50: 83.2 µM (inactive)
[9]
  GI50: > 100 µM (inactive)
[10]
  GI50: > 100 µM (inactive)
[11]
  GI50: > 100 µM (inactive)
[12]
  GI50: > 100 µM (inactive)
[13]
  GI50: > 100 µM (inactive)
[14]
  GI50: 24.2 µM (inactive)
[15]
  GI50: > 100 µM (inactive)
[16]
  GI50: 60.7 µM (inactive)
